Measurements from patent US12187816B2, “Macrocyclic compounds and methods of use thereof” (Genentech, Inc., priority 2020, dated 2025).
Starred links: 1 amine or outer side, 2 acyl side, 3 side chain; linkers in the order of their positions; H or OH if unused. Positions of bridges follow the written chain, without caps; N, C: chain ends. Non-standard residues stand in square brackets, D forms with d. Residues, ends and D or L forms follow the SMILES beside them. Groups on a side chain read outwards from the residue. *: point of attachment. β3hPhg(4-(4-MeThiazol-5-yl)) = Cc1ncsc1-c1ccc([C@@H](CC(=O)[*:2])N[*:1])cc1; JQ1acid = Cc1sc2c(c1C)C(c1ccc(Cl)cc1)=N[C@@H](CC(=O)*)c1nnc(C)n1-2; dPhg(4-(4-Me-thiazol-5-yl)) = Cc1ncsc1-c1ccc([C@@H](N)C(=O)O)cc1; Phg(4-(4-Me-thiazol-5-yl)) = Cc1ncsc1-c1ccc([C@H](N)C(=O)O)cc1; X2 = COc1ccc2c(c1)C(c1ccc(Cl)cc1)=N[C@@H](CC(=O)*)c1nnc(C)n1-2; X12 = Cc1sc2c(c1C)C(c1ccc(Cl)cc1)=N[C@H](CC(=O)*)c1nnc(C)n1-2; X6 = Cc1ncsc1-c1ccc([C@H](CC(=O)[*:2])N[*:1])cc1; dBip = N[C@H](Cc1ccc(-c2ccccc2)cc1)C(=O)O; NHCH2CH2SCH2CO = O=C(CSCCN[*:1])[*:2]; Hyp = O=C(O)[C@@H]1C[C@@H](O)CN1; d4Pal = N[C@H](Cc1ccncc1)C(=O)O; Tle = CC(C)(C)[C@H](N)C(=O)O; AEEEA = NCCOCCOCCOCC(=O)O; dDap = NC[C@@H](N)C(=O)O; Ahx = NCCCCCC(=O)O; AEA = NCCOCC(=O)O

Target: T1, BRD4 (Homo sapiens, UniProt O60885)
T1 construct: Mean 488 intensity of BRD4 quantitated in nuclear region; endogenous in cells; host or cells: EoL-1 eosinophilic leukemia cells
Assay: BRD4 degradation assay in EOL1 cells (immunofluorescence imaging)
Format: cell-based
Settings: EoL-1 eosinophilic leukemia cells, 4 hours treatment, nuclear BRD4 immunofluorescence
In short: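 EoL-1 cells treated 4 h at 37 °C with 20-point 1/3 serial dilutions (0.2% DMSO) in RPMI/10% FBS, then fixed and immunostained for BRD4. Mean nuclear BRD4 intensity measured by high-content imaging, with Hoechst nuclear masking. DMSO and no-primary-antibody controls define 0 and 100%; DC50 and maximal effect from dose-response fit.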

SMILES	DC50 [nM]
Cc1ncsc1-c1ccc([C@@H]2NC(=O)[C@@H]3C[C@@H](O)CN3C(=O)[C@H](C(C)(C)C)NC(=O)CCCCCNC(=O)[C@@H](CNC(=O)C[C@@H]3N=C(c4ccc(Cl)cc4)c4c(sc(C)c4C)-n4c(C)nnc43)NC(=O)CNC2=O)cc1 [Compound 39] (cyclo([Ahx][Tle][Hyp][Phg(4-(4-Me-thiazol-5-yl))]G[dDap](JQ1acid)))	< 1000
Cc1sc2c(c1C)C(c1ccc(Cl)cc1)=N[C@@H](CC(=O)NC[C@H]1NC(=O)CNC(=O)[C@@H](Cc3ccc(-c4ccccc4)cc3)NC(=O)[C@@H]3C[C@@H](O)CN3C(=O)[C@H](C(C)(C)C)NC(=O)COCCNC1=O)c1nnc(C)n1-2 [Compound 40] (cyclo([AEA][Tle][Hyp][dBip]G[dDap](JQ1acid)))	< 50
Cc1sc2c(c1C)C(c1ccc(Cl)cc1)=N[C@@H](CC(=O)NC[C@H]1NC(=O)[C@@H](C)NC(=O)[C@@H](Cc3ccc(-c4ccccc4)cc3)NC(=O)[C@@H]3C[C@@H](O)CN3C(=O)[C@H](C(C)(C)C)NC(=O)COCCNC1=O)c1nnc(C)n1-2 [Compound 41] (cyclo([AEA][Tle][Hyp][dBip][dA][dDap](JQ1acid)))	< 50
Cc1sc2c(c1C)C(c1ccc(Cl)cc1)=N[C@@H](CC(=O)NC[C@H]1NC(=O)[C@@H](C(C)C)NC(=O)[C@@H](Cc3ccc(-c4ccccc4)cc3)NC(=O)[C@@H]3C[C@@H](O)CN3C(=O)[C@H](C(C)(C)C)NC(=O)COCCNC1=O)c1nnc(C)n1-2 [Compound 42] (cyclo([AEA][Tle][Hyp][dBip][dV][dDap](JQ1acid)))	< 50
Cc1sc2c(c1C)C(c1ccc(Cl)cc1)=N[C@@H](CC(=O)NC[C@H]1NC(=O)[C@@H](Cc3ccncc3)NC(=O)[C@@H](Cc3ccc(-c4ccccc4)cc3)NC(=O)[C@@H]3C[C@@H](O)CN3C(=O)[C@H](C(C)(C)C)NC(=O)COCCNC1=O)c1nnc(C)n1-2 [Compound 43] (cyclo([AEA][Tle][Hyp][dBip][d4Pal][dDap](JQ1acid)))	< 50
Cc1sc2c(c1C)C(c1ccc(Cl)cc1)=N[C@@H](CC(=O)NC[C@H]1NC(=O)[C@@H](Cc3ccccc3)NC(=O)[C@@H](Cc3ccc(-c4ccccc4)cc3)NC(=O)[C@@H]3C[C@@H](O)CN3C(=O)[C@H](C(C)(C)C)NC(=O)COCCNC1=O)c1nnc(C)n1-2 [Compound 44] (cyclo([AEA][Tle][Hyp][dBip][dF][dDap](JQ1acid)))	< 50
Cc1sc2c(c1C)C(c1ccc(Cl)cc1)=N[C@@H](CC(=O)NC[C@H]1NC(=O)[C@@H](Cc3ccc(-c4ccccc4)cc3)NC(=O)[C@@H](Cc3ccc(-c4ccccc4)cc3)NC(=O)[C@@H]3C[C@@H](O)CN3C(=O)[C@H](C(C)(C)C)NC(=O)COCCNC1=O)c1nnc(C)n1-2 [Compound 45] (cyclo([AEA][Tle][Hyp][dBip][dBip][dDap](JQ1acid)))	< 1000
Cc1ncsc1-c1ccc([C@H]2NC(=O)[C@@H]3C[C@@H](O)CN3C(=O)[C@H](C(C)(C)C)NC(=O)CSCCNC(=O)[C@@H](CNC(=O)C[C@@H]3N=C(c4ccc(Cl)cc4)c4c(sc(C)c4C)-n4c(C)nnc43)NC(=O)CNC2=O)cc1 [Compound 46] (cyclo(G[dDap](JQ1acid)[NHCH2CH2SCH2CO][Tle][Hyp][dPhg(4-(4-Me-thiazol-5-yl))]))	< 1000
Cc1ncsc1-c1ccc([C@@H]2NC(=O)[C@@H]3C[C@@H](O)CN3C(=O)[C@H](C(C)(C)C)NC(=O)CSCCNC(=O)[C@@H](CNC(=O)C[C@@H]3N=C(c4ccc(Cl)cc4)c4c(sc(C)c4C)-n4c(C)nnc43)NC(=O)CNC2=O)cc1 [Compound 47] (cyclo(G[dDap](JQ1acid)[NHCH2CH2SCH2CO][Tle][Hyp][Phg(4-(4-Me-thiazol-5-yl))]))	> 20000
Cc1sc2c(c1C)C(c1ccc(Cl)cc1)=N[C@@H](CC(=O)NC[C@H]1NC(=O)CNC(=O)[C@@H](Cc3ccc(-c4ccccc4)cc3)NC(=O)[C@@H]3C[C@@H](O)CN3C(=O)[C@H](C(C)(C)C)n3cc(nn3)COCCNC1=O)c1nnc(C)n1-2 [Compound 48]	< 50
Cc1ncsc1-c1ccc([C@H]2NC(=O)[C@@H]3C[C@@H](O)CN3C(=O)[C@H](C(C)(C)C)NC(=O)CSC[C@H](C(N)=O)NC(=O)[C@@H](CNC(=O)COCCOCCOCCNC(=O)C[C@@H]3N=C(c4ccc(Cl)cc4)c4c(sc(C)c4C)-n4c(C)nnc43)NC(=O)CNC2=O)cc1 [Compound 49] ({CH2CO}-[Tle][Hyp][dPhg(4-(4-Me-thiazol-5-yl))]G[dDap]([AEEEA-JQ1acid])[dC]-NH2; thioether N-6)	> 20000
COc1ccc2c(c1)C(c1ccc(Cl)cc1)=N[C@@H](CC(=O)NC[C@H]1NC(=O)CNC(=O)[C@@H](c3ccc(-c4scnc4C)cc3)NC(=O)[C@@H]3C[C@@H](O)CN3C(=O)[C@H](C(C)(C)C)NC(=O)CSC[C@H](C(N)=O)NC1=O)c1nnc(C)n1-2 [Compound 50] ({CH2CO}-[Tle][Hyp][dPhg(4-(4-Me-thiazol-5-yl))]G[dDap](X2)[dC]-NH2; thioether N-6)	< 1000
COc1ccc2c(c1)C(c1ccc(Cl)cc1)=N[C@@H](CC(=O)NC[C@H]1NC(=O)CNC(=O)[C@H](c3ccc(-c4scnc4C)cc3)NC(=O)[C@@H]3C[C@@H](O)CN3C(=O)[C@H](C(C)(C)C)NC(=O)CSC[C@H](C(N)=O)NC1=O)c1nnc(C)n1-2 [Compound 51] ({CH2CO}-[Tle][Hyp][Phg(4-(4-Me-thiazol-5-yl))]G[dDap](X2)[dC]-NH2; thioether N-6)	> 20000
COc1ccc2c(c1)C(c1ccc(Cl)cc1)=N[C@@H](CC(=O)NC[C@H]1NC(=O)[C@@H](C(C)C)NC(=O)[C@@H](Cc3ccc(-c4ccccc4)cc3)NC(=O)[C@@H]3C[C@@H](O)CN3C(=O)[C@H](C(C)(C)C)NC(=O)COCCNC1=O)c1nnc(C)n1-2 [Compound 52] (cyclo([AEA][Tle][Hyp][dBip][dV][dDap](X2)))	< 50
Cc1ncsc1-c1ccc([C@H]2NC(=O)[C@@H]3C[C@@H](O)CN3C(=O)[C@H](C(C)(C)C)NC(=O)CSC[C@H](C(N)=O)NC(=O)[C@@H](CNC(=O)C[C@H]3N=C(c4ccc(Cl)cc4)c4c(sc(C)c4C)-n4c(C)nnc43)NC(=O)CNC2=O)cc1 [Compound 53] ({CH2CO}-[Tle][Hyp][dPhg(4-(4-Me-thiazol-5-yl))]G[dDap](X12)[dC]-NH2; thioether N-6)	> 20000
Cc1ncsc1-c1ccc([C@@H]2CC(=O)NCC(=O)N[C@H](CNC(=O)C[C@@H]3N=C(c4ccc(Cl)cc4)c4c(sc(C)c4C)-n4c(C)nnc43)C(=O)NCCOCC(=O)N[C@@H](C(C)(C)C)C(=O)N3C[C@H](O)C[C@H]3C(=O)N2)cc1 [Compound 54] (cyclo([AEA][Tle][Hyp][X6]G[dDap](JQ1acid)))	< 50
Cc1ncsc1-c1ccc([C@H]2CC(=O)NCC(=O)N[C@H](CNC(=O)C[C@@H]3N=C(c4ccc(Cl)cc4)c4c(sc(C)c4C)-n4c(C)nnc43)C(=O)NCCOCC(=O)N[C@@H](C(C)(C)C)C(=O)N3C[C@H](O)C[C@H]3C(=O)N2)cc1 [Compound 55] (cyclo([AEA][Tle][Hyp][β3hPhg(4-(4-MeThiazol-5-yl))]G[dDap](JQ1acid)))	< 1000
Cc1sc2c(c1C)C(c1ccc(Cl)cc1)=N[C@@H](CC(=O)NC[C@H]1NC(=O)[C@@H](C)NC(=O)[C@@H](Cc3ccc(-c4ccccc4)cc3)NC(=O)[C@@H]3C[C@@H](O)CN3C(=O)[C@H](C(C)(C)C)n3cc(nn3)COCCNC1=O)c1nnc(C)n1-2 [Compound 56]	< 50
